In paper PMC5207785, “Arginine and Lysine Transporters Are Essential for Trypanosoma brucei” (PLoS ONE, 2017):

Tests used:
TbAAT5-3 [1] = molecular target: T1, TbAAT5-3 (Trypanosoma brucei, UniProt Q57UX9); test: competition of L-[3H]-arginine uptake in S. cerevisiae […]c; assay type: cell-based; conditions: 500 µM, 50 μM L-arginine, pH 6.0
T1 construct: gene Tb08.4A8.362; full-length ORF (1377 bp incl. stop) in pDR197, untagged, expressed in S. cerevisiae 21.983c; nt 96 resolved as C (Asp)
T1 sequence (Q57UX9 1-458): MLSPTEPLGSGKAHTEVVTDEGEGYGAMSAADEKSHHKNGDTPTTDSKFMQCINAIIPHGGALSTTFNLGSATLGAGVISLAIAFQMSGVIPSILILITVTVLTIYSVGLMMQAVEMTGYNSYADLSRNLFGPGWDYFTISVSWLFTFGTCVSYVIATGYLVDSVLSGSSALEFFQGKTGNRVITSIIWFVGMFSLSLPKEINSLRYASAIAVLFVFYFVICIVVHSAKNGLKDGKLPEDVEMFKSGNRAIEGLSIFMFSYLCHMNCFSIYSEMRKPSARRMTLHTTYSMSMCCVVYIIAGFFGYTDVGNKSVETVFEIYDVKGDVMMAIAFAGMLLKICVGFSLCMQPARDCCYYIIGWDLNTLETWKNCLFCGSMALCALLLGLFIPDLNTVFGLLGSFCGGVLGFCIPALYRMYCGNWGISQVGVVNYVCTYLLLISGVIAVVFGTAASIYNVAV

TbAAT5-3 [2] = molecular target: T1, TbAAT5-3; test: as above; assay type: cell-based; conditions: 5000 µM; 50 μM L-arginine; pH 6.0
TbAAT16-1 = molecular target: T2, TbAAT16-1 (Trypanosoma brucei, UniProt Q381K2); test: competition of L-[3H]-lysine uptake in S. cerevisiae […]Δ7AA; assay type: cell-based; conditions: 500 µM; 50 μM L-lysine; pH 4.5
T2 construct: gene Tb11.01.7500; full-length ORF (1389 bp incl. stop) in pDR197, untagged, expressed in S. cerevisiae 22Δ7AA; syntenic TREU927 gene Tb927.11.15840
T2 sequence (Q381K2 1-462): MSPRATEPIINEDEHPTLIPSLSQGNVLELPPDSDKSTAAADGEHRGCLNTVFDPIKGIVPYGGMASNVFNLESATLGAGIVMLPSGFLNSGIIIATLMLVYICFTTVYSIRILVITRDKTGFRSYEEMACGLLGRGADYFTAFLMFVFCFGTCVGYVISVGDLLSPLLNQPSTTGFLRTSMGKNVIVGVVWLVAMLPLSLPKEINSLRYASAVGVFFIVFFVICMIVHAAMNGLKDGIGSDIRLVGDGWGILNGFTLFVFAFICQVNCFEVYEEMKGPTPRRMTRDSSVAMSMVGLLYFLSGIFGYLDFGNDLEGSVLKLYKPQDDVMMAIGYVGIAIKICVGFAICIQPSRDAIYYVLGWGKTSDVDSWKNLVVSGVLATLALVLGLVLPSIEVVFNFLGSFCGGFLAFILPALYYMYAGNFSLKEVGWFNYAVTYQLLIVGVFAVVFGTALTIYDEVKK

[3] = substrate: NCCCC[C@H](N)C(=O)O; test: cells, lysate or membranes; conditions: labelled compound, 30 °C, 100 mM glucose, empty-vector background subtracted, pH of this assay not given
[4] = substrate: N=C(N)NCCC[C@H](N)C(=O)O; test: cells, lysate or membranes; assay type: cell-based, Trypanosoma brucei; conditions: labelled compound, 30 °C, 100 mM glucose, empty-vector background subtracted, pH of this assay not given

## N=C(N)NCCCC[C@H](N)C(=O)O [Homoarginine]
TbAAT5-3 [1]
  L-[^3H]-arginine uptake rate (%) / 10x: 25.6 ± 4.2%

## N=C(N)NOCC[C@H](N)C(=O)O [Canavanine]
TbAAT5-3 [1]
  L-[^3H]-arginine uptake rate (%) / 10x: 38.5 ± 4.5%

## COC(=O)[C@@H](N)CCCNC(=N)N [Arginine methyl ester]
TbAAT5-3 [2]
  L-[^3H]-arginine uptake rate (%) / 100x: 67.6 ± 10.3%

## CCOC(=O)[C@@H](N)CCCNC(=N)N [Arginine ethyl ester]
TbAAT5-3 [2]
  L-[^3H]-arginine uptake rate (%) / 100x: 72.5 ± 8.7%

## NCCCC[C@H](NC(=O)OCC1c2ccccc2-c2ccccc21)C(=O)O [Fmoc-Lysine, N-α-(9-fluorenylmethyloxycarbonyl)-L-lysine]
TbAAT16-1
  L-[^3H]-lysine uptake rate (%) / 10x: 57.6 ± 6.9%

## N=C(N)NCCC[C@H](N)C(=O)Nc1ccc2ccccc2c1 [Arginine-β-naphthylamide]
TbAAT5-3 [1]; unspecific effect of the amphipathic compound not excluded
  L-[^3H]-arginine uptake rate (%) / 10x: 69 ± 6.6%

## NCCSC[C@H](N)C(=O)O [Thialysine, S-(2-aminoethyl)-L-cysteine]
TbAAT16-1
  L-[^3H]-lysine uptake rate (%) / 10x: 35.3 ± 1.8%

## NCCCC[C@H](N)C(=O)O [L-lysine]
TbAAT5-3 [2]
  L-[^3H]-arginine uptake rate (%) / 100x: 56.5 ± 8.2%

B1: TbAAT16-1 (Trypanosoma brucei brucei TREU927) (protein)
chain: MSPRATEPIINEDEHPTLIPSLSQGNVLELPPDSDKSTAAADGEHRGCLNTVFDPIKGIVPYGGMASNVFNLESATLGAGIVMLPSGFLNSGIIIATLMLVYICFTTVYSIRILVITRDKTGFRSYEEMACGLLGRGADYFTAFLMFVFCFGTCVGYVISVGDLLSPLLNQPSTTGFLRTSMGKNVIVGVVWLVAMLPLSLPKEINSLRYASAVGVFFIVFFVICMIVHAAMNGLKDGIGSDIRLVGDGWGILNGFTLFVFAFICQVNCFEVYEEMKGPTPRRMTRDSSVAMSMVGLLYFLSGIFGYLDFGNDLEGSVLKLYKPQDDVMMAIGYVGIAIKICVGFAICIQPSRDAIYYVLGWGKTSDVDSWKNLVVSGVLATLALVLGLVLPSIEVVFNFLGSFCGGFLAFILPALYYMYAGNFSLKEVGWFNYAVTYQLLIVGVFAVVFGTALTIYDEVKK
[3]
  Km: 4.3 ± 0.5 µM

B2: TbAAT5-3 (Trypanosoma brucei brucei TREU927) (protein)
chain: MLSPTEPLGSGKAHTEVVTDEGEGYGAMSAADEKSHHKNGDTPTTDSKFMQCINAIIPHGGALSTTFNLGSATLGAGVISLAIAFQMSGVIPSILILITVTVLTIYSVGLMMQAVEMTGYNSYADLSRNLFGPGWDYFTISVSWLFTFGTCVSYVIATGYLVDSVLSGSSALEFFQGKTGNRVITSIIWFVGMFSLSLPKEINSLRYASAIAVLFVFYFVICIVVHSAKNGLKDGKLPEDVEMFKSGNRAIEGLSIFMFSYLCHMNCFSIYSEMRKPSARRMTLHTTYSMSMCCVVYIIAGFFGYTDVGNKSVETVFEIYDVKGDVMMAIAFAGMLLKICVGFSLCMQPARDCCYYIIGWDLNTLETWKNCLFCGSMALCALLLGLFIPDLNTVFGLLGSFCGGVLGFCIPALYRMYCGNWGISQVGVVNYVCTYLLLISGVIAVVFGTAASIYNVAV
notes: full-length ORF (1377 bp incl. stop) in pDR197, untagged, expressed in S. cerevisiae 21.983c; nt 96 resolved as C (Asp)
[4]
  Km: 3.6 ± 0.4 µM
